This assay concerns A. baumannii S 226 strain producing CHDL Oxacillinases (OXA 51, OXA-23). Put plainly: Time-kill study: viable bacterial count in Mueller Hinton broth. The format is cell-based, Acinetobacter baumannii. The conditions noted are these: for Bacterial count: initial count 6.62 log CFU/ml. The method, then: The antibacterial activity of compositions according to the invention against various bacterial strains was investigated. In a typical study, freshly grown cultures were diluted to required cell density (initial starting inoculum) in Mueller Hinton broth medium (BD, USA). The antibacterial agents, either alone or in combination, at required concentrations were added into the medium containing the desired initial starting inoculum. The samples were incubated under shaking condition (120 rpm) at 37° C. Enumeration of viable bacterial count was undertaken, every 2 hours, by diluting in normal saline and plating on to the Tryptic Soya Agar plates (BD, USA). The plates were incubated for 24 hours to arrive at the viable bacterial count. The antibacterial activity is expressed in terms of Colony Forming Units (CFU). The decrease of 1 Log CFU/ml, after administration of combination of present invention, in comparison to initial bacterial count corresponds to 90% killing of bacteria. Similarly, 2 Log CFU/ml reductions corresponds to 99% killing of bacteria and 3 Log CFU/ml reductions is equal to 99.9% killing of bacteria.
The combination according to invention was tested against highly resistant A. baumannii S 226 strain producing Carbapenem hydrolyzing (CHDL) Oxacillinases [OXA-51, OXA-23]. The assay without any antibacterial agent was taken as control.

The mark [1] stands for this setting: 2 hours, active ingredient alone at 8 mcg/ml.
[2] abbreviates: 4 hours, active ingredient alone at 8 mcg/ml.
Where [3] appears, read: 6 hours, active ingredient alone at 8 mcg/ml.
Where [4] appears, read: 8 hours, active ingredient alone at 8 mcg/ml.
Setting [5] is: 24 hours, active ingredient alone at 8 mcg/ml.

Where a name gives a salt, the structure may show the parent alone.

Here are results for four compounds from patent publication US20160303094A1, “PHARMACEUTICAL COMPOSITIONS COMPRISING ANTIBACTERIAL AGENTS” (priority 2013, published 2016).

Consider `N#C[C@@H]1CC[C@@H]2CN1C(=O)N2OS(=O)(=O)O` [Sodium salt of a compound of Formula (I), sodium salt of sulphuric acid, mono[(1R,2S,5R)-2-cyano-7-oxo-1,6-diazabicyclo[3.2.1]oct-6-yl] ester], for which the Bacterial count worked out at 7.93 Log10 CFU/ml (2 hours, active ingredient alone at 4 mcg/ml); 7.95 Log10 CFU/ml (4 hours, active ingredient alone at 4 mcg/ml); 8.20 Log10 CFU/ml (6 hours, active ingredient alone at 4 mcg/ml); 8.50 Log10 CFU/ml (8 hours, active ingredient alone at 4 mcg/ml); 8.60 Log10 CFU/ml (24 hours, active ingredient alone at 4 mcg/ml). In addition, the “decrease of the bacterial count of A. baumannii throughout the duration of the study” value (“decrease” below) (used alone at 4 mcg/ml) is “failed to decrease the bacterial count”.

As to `C[C@@H](O)[C@H]1C(=O)N2C(C(=O)O)=C(SCCN=CN)C[C@H]12` [Imipenem], the Bacterial count runs as follows: under setting [1], 7.46 Log10 CFU/ml; under setting [2], 8.26 Log10 CFU/ml; under setting [3], 8.43 Log10 CFU/ml; under setting [4], 8.52 Log10 CFU/ml; under setting [5], 8.74 Log10 CFU/ml.

As for `C[C@@H](O)[C@H]1C(=O)N2C(C(=O)O)=C(S[C@@H]3CN[C@H](C(=O)N(C)C)C3)[C@H](C)[C@H]12` [Meropenem], the Bacterial count under setting [1] is 8.00 Log10 CFU/ml; the Bacterial count under setting [2] is 8.34 Log10 CFU/ml; the Bacterial count under setting [3] is reported as 8.45 Log10 CFU/ml; the Bacterial count under setting [4] came to 8.65 Log10 CFU/ml; the Bacterial count under setting [5] was 8.70 Log10 CFU/ml. Further, the “decrease” value (used alone at 8 mcg/ml) is given as “failed to decrease the bacterial count”.

On to `C[C@@H](O)[C@H]1C(=O)N2C(C(=O)O)=C(S[C@@H]3CN[C@H](CNS(N)(=O)=O)C3)[C@H](C)[C@H]12` [Doripenem], for which the Bacterial count was found to be 7.95 Log10 CFU/ml under setting [1]; 8.08 Log10 CFU/ml under setting [2]; 8.12 Log10 CFU/ml under setting [3]; 8.50 Log10 CFU/ml under setting [4]; 8.30 Log10 CFU/ml under setting [5]. Also, the “decrease” value (used alone at 8 mcg/ml) is recorded as “failed to decrease the bacterial count”.
